Test results reported in US20130231347A1, “METHOD OF TREATMENT WITH BRAF INHIBITOR” (GLAXOSMITHKLINE INTELLECTUAL PROPERTY (NO.2) LIMITED, priority 2010, published 2013).
Like-named read-outs stand apart in the source and are kept apart here. One block for each compound: values may come before it.

Legend:
[1] = test system: 16R6-4 (A375 F11 clone with acquired resistance to Compound A); assay: Cell growth inhibition assay (Cell Titer Glo, 3 days); format: cell-based; conditions: Homo sapiens, A-375, 72 h, A146A/T, MEK1 P387P/S, single agent
Protocol: (§1) A clonal isolate, hereinafter referred to as “A375 F11”, was obtained from the A375 cell line (obtained from ATCC), based on increased sensitivity to a BRAF inhibitor. A375 F11 cells were exposed to increasing concentrations of Compound A and maintained in a final concentration of 1.26 μM or 1.6 μM. 12R5-3, 12R8-1, 12R8-3, 16R5-5, 16R6-2, 16R6-3 and 16R6-4 were derived as single cell clones from mixed populations of these A375 F11 cells selected to grow in the presence of Compound A. All cells were grown in RPMI 1640 medium containing 10% Fetal Bovine Serum (FBS).
(§2) All cells were cultured without compound, e.g. Compound A, for a minimum of 72 hours prior to cell plating. Cells were assayed in a 96-well tissue culture plate (NUNC 136102) of RPMI medium containing 10% FBS for all cells at 1,000 cells per well. Approximately 24 hours after plating, cells were exposed to ten, three-fold serial dilutions of compound or the combination of the two agents at a constant molar to molar ratio, e.g. 10:1 Compound A to Compound B, in RPMI media containing 10% FBS. Cells were incubated in the presence of compounds for 3 days. ATP levels were determined by adding Cell Titer Glo® (Promega) according to the manufacturer's protocol. Briefly, Cell Titer Glo® was added each plate, incubated for 30 minutes then luminescent signal was read on the SpectraMax L plate reader with a 0.5 sec integration time. Inhibition of cell growth was estimated after treatment with compound or combination of compounds for three days and comparing the Cell Titer Glo® signal to cells treated with vehicle (DMSO). Cell growth was calculated relative to vehicle (DMSO) treated control wells.
(§3) For single agent and combination treatments, cells were exposed to compounds at a fixed-dose-ratio, and dose response curves were fit to the experimental data and analyzed using regression models.

[2] = test system: 16R6-3 (A375 F11 clone with acquired resistance to Compound A); assay: as above; format: cell-based; conditions: Homo sapiens, A-375, 72 h, MEK1 P387P/S, single agent
Protocol: as §1, §2, §3

[3] = test system: 12R5-3 (A375 F11 clone with acquired resistance to Compound A); assay: as above; format: cell-based; conditions: Homo sapiens, A-375, 72 h, MEK1 WT, single agent
Protocol: as §1, §2, §3

[4] = test system: 12R9 (A375 F11 line with acquired resistance to Compound A); assay: as above; format: cell-based; conditions: Homo sapiens, A-375, 72 h, Table 3, 12R9: NRAS Q61Q/R, MEK1 ND, single agent
Protocol: as §1
All cells were cultured without compound, e.g. Compound A, for a minimum of 72 hours prior to cell plating. Cells were assayed in a 96-well tissue culture plate (NUNC 136102) of RPMI medium containing 10% FBS for all cells at 1,000 cells per well. […] ATP levels were determined by adding Cell Titer Glo® (Promega) according to the manufacturer's protocol. Briefly, Cell Titer Glo® was added each plate, incubated for 30 minutes then luminescent signal was read on the SpectraMax L plate reader with a 0.5 sec integration time. […] Cell growth was calculated relative to vehicle (DMSO) treated control wells.
as §3

[5] = test system: 16R5-5 (A375 F11 clone with acquired resistance to Compound A); assay: as above; format: cell-based; conditions: Homo sapiens, A-375, 72 h, MEK1 P387P/S, single agent
Protocol: as §1, §2, §3

[6] = test system: 12R8-1 (A375 F11 clone with acquired resistance to Compound A); assay: as above; format: cell-based; conditions: Homo sapiens, A-375, 72 h, MEK1 WT, single agent
Protocol: as §1, §2, §3

[7] = test system: 16R6-2 (A375 F11 clone with acquired resistance to Compound A); assay: as above; format: cell-based; conditions: Homo sapiens, A-375, 72 h, MEK1 P387P/S, single agent
Protocol: as §1, §2, §3

[8] = test system: A375 F11 clones that acquired resistance to Compound A; assay: Cell growth inhibition assay, resistant A375 clones taken together; conditions: Homo sapiens
Protocol: as §1, §2, §3

[9] = test system: YUSIT1 clones that acquired resistance to Compound A (BRAF V600K); assay: Cell growth inhibition assay, resistant YUSIT1 clones; format: cell-based, human; conditions: YUSIT1 clones resistant to Compound A
From the text: The YUSIT1 melanoma cells were obtained from Yale Dermatology Cell Culture Facility.

A375 F11 cells = assay: Cell growth inhibition assay (Cell Titer Glo, 3 days); format: cell-based; conditions: Homo sapiens, 72 h, MEK1 WT, single agent
Protocol: as §1, §2, §3

[10] = test system: 12R5-5 (A375 F11 clone with acquired resistance to Compound A); assay: as above; format: cell-based; conditions: Homo sapiens, A-375, 72 h, MEK1 HET 59delK, single agent
Protocol: as §1, §2, §3

[11] = test system: 12R8-3 (A375 F11 clone with acquired resistance to Compound A); assay: as above; format: cell-based; conditions: Homo sapiens, A-375, 72 h, MEK1 WT, single agent
Protocol: as §1, §2, §3

[12] = test system: 12R5-1 (A375 F11 clone with acquired resistance to Compound A); assay: as above; format: cell-based; conditions: Homo sapiens, A-375, 72 h, MEK1 HET 59delK, single agent
Protocol: as §1, §2, §3

IC50 ([1]; 16R6-4: NRAS Q61Q/K, read-out: IC50, Single Agent Effect, Compound B): > 1000 nM
IC50 ([1]; Table 3, 16R6-4: NRAS Q61Q/K, read-out: IC50, Single Agent, Compound B): 475 ± 587 nM
IC50 ([2]; 16R6-3: NRAS A146A/T, read-out: IC50, Single Agent Effect, Compound B): 162 ± 67 nM
IC50 ([2]; Table 3, 16R6-3: NRAS A146A/T, read-out: IC50, Single Agent, Compound B): 137 ± 77 nM
IC50 ([3]; 12R5-3: NRAS A146A/T, read-out: IC50, Single Agent Effect, Compound B): 78 ± 29 nM
IC50 ([3]; Table 3, 12R5-3: NRAS A146A/T, read-out: IC50, Single Agent, Compound B): 132 ± 54 nM
IC50 ([4]; n = 1, read-out: IC50, Single Agent, Compound B): 24 nM
IC50 ([5]; 16R5-5: NRAS Q61Q/K, read-out: IC50, Single Agent Effect, Compound B): 129 ± 54 nM
IC50 ([5]; Table 3, 16R5-5: NRAS Q61Q/K, read-out: IC50, Single Agent, Compound B): 97 nM
IC50 ([6]; 12R8-1: NRAS A146A/T, read-out: IC50, Single Agent Effect, Compound B): 81 ± 31 nM
IC50 ([6]; Table 3, 12R8-1: NRAS A146A/T, read-out: IC50, Single Agent, Compound B): 56 ± 39 nM
IC50 ([7]; 16R6-2: NRAS Q61Q/K, read-out: IC50, Single Agent Effect, Compound B): 99 ± 58 nM
IC50 ([7]; Table 3, 16R6-2: NRAS Q61Q/K, read-out: IC50, Single Agent, Compound B): 339 ± 366 nM
IC50 ([8]; A-375, read-out: IC50 of the combination, for Compound B): 18 to 39 nM
IC50 (A375 F11 cells; F11: NRAS WT, mean ± std, read-out: IC50, Single Agent Effect, Compound B): 2 ± 2 nM
IC50 (A375 F11 cells; Table 3, F11: NRAS WT, read-out: IC50, Single Agent, Compound B): 6 ± 4 nM
IC50 ([10]; 12R5-5: NRAS WT, read-out: IC50, Single Agent Effect, Compound B): > 1000 nM
IC50 ([10]; Table 3, 12R5-5: NRAS WT, read-out: IC50, Single Agent, Compound B): 315 ± 212 nM
IC50 ([11]; 12R8-3: NRAS A146A/T, read-out: IC50, Single Agent Effect, Compound B): 59 ± 37 nM
IC50 ([11]; Table 3, 12R8-3: NRAS A146A/T, n = 1, read-out: IC50, Single Agent, Compound B): 84 nM
IC50 ([12]; 12R5-1: NRAS WT, read-out: IC50, Single Agent Effect, Compound B): > 1000 nM
IC50 ([12]; Table 3, 12R5-1: NRAS WT, read-out: IC50, Single Agent, Compound B): > 1000 nM
Structure (SMILES): CC(=O)Nc1cccc(-n2c(=O)n(C3CC3)c(=O)c3c(Nc4ccc(I)cc4F)n(C)c(=O)c(C)c32)c1 [Compound B, N-{3-[3-cyclopropyl-5-(2-fluoro-4-iodo-phenylamino)-6,8-dimethyl-2,4,7-trioxo-3,4,6,7-tetrahydro-2H-pyrido[4,3-d]pyrimidin-1-yl]phenyl}acetamide]
IC50 ([9]; Homo sapiens, single agent, read-out: IC50, cell growth inhibition): 2 to 5 nM
reduced sensitivity compared to the parental YUSIT1 cells ([9]; single agent (FIG. 9)): 3-7 fold

IC50 ([1]; Table 3, 16R6-4: NRAS Q61Q/K, read-out: IC50, Single Agent, Compound C): 213 ± 169 nM
IC50 ([2]; Table 3, 16R6-3: NRAS A146A/T, read-out: IC50, Single Agent, Compound C): 162 ± 99 nM
IC50 ([3]; Table 3, 12R5-3: NRAS A146A/T, read-out: IC50, Single Agent, Compound C): 159 ± 140 nM
IC50 ([4]; n = 1, read-out: IC50, Single Agent, Compound C): 57 nM
IC50 ([5]; Table 3, 16R5-5: NRAS Q61Q/K, read-out: IC50, Single Agent, Compound C): 91 ± 36 nM
IC50 ([6]; Table 3, 12R8-1: NRAS A146A/T, read-out: IC50, Single Agent, Compound C): 145 ± 47 nM
IC50 ([7]; Table 3, 16R6-2: NRAS Q61Q/K, read-out: IC50, Single Agent, Compound C): 111 ± 87 nM
IC50 (A375 F11 cells; Table 3, F11: NRAS WT, read-out: IC50, Single Agent, Compound C): 98 ± 58 nM
IC50 ([10]; Table 3, 12R5-5: NRAS WT, read-out: IC50, Single Agent, Compound C): 87 ± 1 nM
IC50 ([11]; Table 3, 12R8-3: NRAS A146A/T, n = 1, read-out: IC50, Single Agent, Compound C): 375 nM
IC50 ([12]; Table 3, 12R5-1: NRAS WT, read-out: IC50, Single Agent, Compound C): 155 ± 130 nM
Structure (SMILES): COc1ncc(-c2ccc3nccc(-c4ccnnc4)c3c2)cc1NS(=O)(=O)c1ccc(F)cc1F [Compound C, 2,4-difluoro-N-{2-(methyloxy)-5-[4-(4-pyridazinyl)-6-quinolinyl]-3-pyridinyl}benzenesulfonamide]

IC50 ([8]; A-375, read-out: IC50, cell growth): > 10000 nM
Structure (SMILES): CCCS(=O)(=O)Nc1ccc(F)c(C(=O)c2c[nH]c3ncc(-c4ccc(Cl)cc4)cc23)c1F [PLX4032, reference compound]
